Molecules are shown by their SMILES. “And” between values parts separate entries of the source, which are not always exact repeats. Equal entries are not always repeated.

As a reminder, the IC50 is the concentration needed to halve the response being measured.

The target of assay [1] is T1, TLR1/2 (Homo sapiens, UniProt O60603+Q15399).
T1 construct: Human Peripheral Blood Mononuclear cells (hPBMCs) were collected from healthy adult donors; endogenous in cells; host or cells: primary human PBMCs
T1 sequence (Q15399 25-786): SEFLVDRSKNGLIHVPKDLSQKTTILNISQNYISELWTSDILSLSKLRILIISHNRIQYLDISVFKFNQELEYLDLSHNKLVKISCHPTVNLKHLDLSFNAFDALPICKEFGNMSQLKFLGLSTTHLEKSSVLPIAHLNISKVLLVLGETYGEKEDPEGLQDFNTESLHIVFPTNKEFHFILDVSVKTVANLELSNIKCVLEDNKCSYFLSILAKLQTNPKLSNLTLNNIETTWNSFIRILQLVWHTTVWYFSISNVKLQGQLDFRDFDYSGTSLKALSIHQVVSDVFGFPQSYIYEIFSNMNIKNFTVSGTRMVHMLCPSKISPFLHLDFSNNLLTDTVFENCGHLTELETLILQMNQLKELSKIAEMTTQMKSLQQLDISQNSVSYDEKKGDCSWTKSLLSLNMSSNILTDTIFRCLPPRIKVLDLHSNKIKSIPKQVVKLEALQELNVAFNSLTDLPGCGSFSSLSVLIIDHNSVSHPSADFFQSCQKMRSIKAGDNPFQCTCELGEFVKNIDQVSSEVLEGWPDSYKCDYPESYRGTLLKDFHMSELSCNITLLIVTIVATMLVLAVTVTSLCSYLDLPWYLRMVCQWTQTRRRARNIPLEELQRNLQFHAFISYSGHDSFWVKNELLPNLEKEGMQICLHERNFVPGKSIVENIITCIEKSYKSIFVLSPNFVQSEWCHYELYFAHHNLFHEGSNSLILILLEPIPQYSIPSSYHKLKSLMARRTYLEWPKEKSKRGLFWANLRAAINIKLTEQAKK
T1 sequence (O60603 19-784 limits assumed): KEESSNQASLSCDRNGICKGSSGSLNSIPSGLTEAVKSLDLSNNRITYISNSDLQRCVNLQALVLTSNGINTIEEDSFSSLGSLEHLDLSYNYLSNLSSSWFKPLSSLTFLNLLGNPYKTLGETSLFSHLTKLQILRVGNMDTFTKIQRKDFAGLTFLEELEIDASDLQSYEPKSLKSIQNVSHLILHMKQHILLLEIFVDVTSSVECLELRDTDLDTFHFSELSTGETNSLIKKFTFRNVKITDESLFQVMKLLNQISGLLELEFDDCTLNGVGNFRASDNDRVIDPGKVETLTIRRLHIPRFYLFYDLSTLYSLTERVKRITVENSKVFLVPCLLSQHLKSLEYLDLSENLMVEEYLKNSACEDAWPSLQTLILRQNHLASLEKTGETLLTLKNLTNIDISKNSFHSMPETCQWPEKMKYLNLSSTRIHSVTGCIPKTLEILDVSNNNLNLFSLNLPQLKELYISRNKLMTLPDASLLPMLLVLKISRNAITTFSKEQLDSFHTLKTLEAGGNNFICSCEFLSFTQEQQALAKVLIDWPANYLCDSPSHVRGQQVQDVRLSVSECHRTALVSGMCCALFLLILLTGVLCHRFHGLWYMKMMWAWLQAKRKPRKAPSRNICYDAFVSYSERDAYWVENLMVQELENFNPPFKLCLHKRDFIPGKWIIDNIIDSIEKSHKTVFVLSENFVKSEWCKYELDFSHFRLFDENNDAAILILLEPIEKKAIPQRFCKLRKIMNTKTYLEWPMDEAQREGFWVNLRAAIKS
As to the kind of experiment: TNF-α production by human PBMC stimulated by TLR1/2 ligand Pam3CSK4 (ELISA). Format: cell-based. The note with it: for TLR2-dependent TNF-α production: 2.5 μM; for Mean TNF-α / TNF-α: activator PAM3CSK4, antagonist 2.5 μM; for Mean TNF-α: n = 3; for TNF-α: single replicate. Here is the method:
Human Peripheral Blood Mononuclear cells (hPBMCs) were collected from healthy adult donors. hPBMCs were cultured in round-bottom 96-well plates (BD Falcon, Durham, NC, USA) with a density of 5 × 10^5 cells/well. Plated cells were pretreated with DMSO or 2.5 μM inhibitors for 3 h and then stimulated by indicated ligands, such as R848 or TLR1/2 specific ligand Pam3CSK4 (Invivogen, HongKong, China), for 20 h in […] of RPMI 1640 medium (Gibco, Paisley, UK) supplemented with 10% FBS, Penicillin-Streptomycin-Glutamine (Gibco, Paisley, UK), 50 μM 2-ME medium at 37 °C in the presence of 5% CO2. Supernatants were collected to measure secreted cytokines by ELISA. Concentration of human IFN-α and TNF-α in the supernatants was measured with Verikine Human IFN-α Multi-Subtype Serum ELISA Kit (PBL Assay Science, Piscataway, NJ, USA) and Human TNF-α Uncoated ELISA (ThermoFisher Scientific, Carlsbad, CA, USA), respectively. This study was approved by the Research Ethics Committee of IMSUT (accession number: 30-100-B20190419).

The target in assay [2] is T2, mouse TLR7 (Mus musculus, UniProt P58681).
T2 construct: host or cells: HEK293 (293XL-mTLR7)
T2 sequence (P58681 27-1050): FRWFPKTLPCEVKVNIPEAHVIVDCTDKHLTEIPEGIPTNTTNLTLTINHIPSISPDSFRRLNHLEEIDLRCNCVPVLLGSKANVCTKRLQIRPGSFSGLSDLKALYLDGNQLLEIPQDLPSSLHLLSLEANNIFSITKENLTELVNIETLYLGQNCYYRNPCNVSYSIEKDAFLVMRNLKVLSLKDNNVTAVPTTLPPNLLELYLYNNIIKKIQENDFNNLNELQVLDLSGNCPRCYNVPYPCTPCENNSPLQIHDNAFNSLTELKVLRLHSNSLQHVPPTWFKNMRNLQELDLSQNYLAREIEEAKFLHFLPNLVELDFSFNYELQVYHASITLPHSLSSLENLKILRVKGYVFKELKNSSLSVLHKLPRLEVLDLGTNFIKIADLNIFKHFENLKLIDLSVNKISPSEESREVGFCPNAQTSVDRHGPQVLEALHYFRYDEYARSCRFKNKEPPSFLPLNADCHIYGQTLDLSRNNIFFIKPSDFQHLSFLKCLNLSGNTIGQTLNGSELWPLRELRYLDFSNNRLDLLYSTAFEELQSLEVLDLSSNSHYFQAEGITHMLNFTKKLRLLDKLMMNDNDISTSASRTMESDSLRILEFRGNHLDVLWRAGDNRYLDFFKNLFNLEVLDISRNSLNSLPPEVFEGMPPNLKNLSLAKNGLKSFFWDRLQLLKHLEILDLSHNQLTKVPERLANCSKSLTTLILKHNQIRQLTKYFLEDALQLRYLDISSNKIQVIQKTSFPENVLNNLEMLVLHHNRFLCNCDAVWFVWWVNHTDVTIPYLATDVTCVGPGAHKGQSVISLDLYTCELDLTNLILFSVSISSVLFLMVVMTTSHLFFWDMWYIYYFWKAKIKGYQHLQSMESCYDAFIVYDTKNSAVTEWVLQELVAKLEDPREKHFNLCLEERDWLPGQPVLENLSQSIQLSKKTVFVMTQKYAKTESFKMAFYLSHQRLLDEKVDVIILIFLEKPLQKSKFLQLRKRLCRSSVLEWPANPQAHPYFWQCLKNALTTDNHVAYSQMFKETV
The assay is described as follows: Mouse TLR7 reporter gene assay (NF-kB luciferase, HEK293). In kind it is cell-based. Here is the method: Compounds were dissolved in dimethyl sulfoxide. The day before transfection, mouse TLR7 genestably-expressing HE293 cell line (293XL-mTLR7 cell, InvivoGen, USA) and mouse TLR9 genestably-expressing HEK293 cell line (293-mTLR9 cell, InvivoGen) were seeded in collagen-coated 6-well plate (AGC techno glass) at 3 × 10^5 cells/well in DMEM (GIBCO) with 10% fetal bovine serum (GIBCO), and 10 μg ml^−1 Blastcidin S HCl (GIBCO) and incubated at 37 °C in 5% CO2. The plates were incubated over-night and then cotransfected with 1 μg (mouse TLR7) or 0.3 μg (mouse TLR9) of pNF-kB-Luciferase reporter in a 10:1 ratio with 4 μl of FuGene6 transfection reagent (Promega corporation, USA) following the manufacturer’s instructions. The plates were incubated 24 h. The cells re-seeded into 96-well plate (AGC techno glass) at 2 × 10^4 cells/well in DMEM (GIBCO) with 10% fetal bovine serum (GIBCO), and 10 μg ml^−1 Blastcidin S HCl (GIBCO) and then inhibition with various concentrations of compound. HCQ (mouse TLR7/9, Acros Organics, United Kingdom) was used as positive control. After 30 min, R848 (mouse TLR7/8 ligand) or CpG1826 (mouse TLR9 ligand, Hokkaido System Science Co., Ltd.) added to each well, wherein each final concentration were adjusted to 200 nM R848 (mouse TLR7) or 100 nM CpG1826 (mouse TLR9). The plates were then incubated an additional 6 h at 37 °C in 5% CO2, and then the luciferase activity was measured as activation of mouse TLR7 and 9. The luciferase activity was evaluated as follows: Bright-GloTM Luciferase Assay System (Promega) was added to the incubated sample (100 μl/well); after 2 min, the luminescence intensity of each sample was measured with a luminometer (Envision).
A general note: A reporter such as luciferase makes a cellular process visible.

The mark [3] stands for this setting: compound 0.0001 nM (as headed), R848 200 nM.
Setting [4] is: compound 0.001 nM (as headed), R848 200 nM.
Setting [5] is: compound 0.003 nM (as headed), R848 200 nM.
Where [6] appears, read: compound 0.01 nM (as headed), R848 200 nM.
[7] abbreviates: compound 0.03 nM (as headed), R848 200 nM.
Setting [8] is: compound 0.1 nM (as headed), R848 200 nM.
Where [9] appears, read: compound 0.3 nM (as headed), R848 200 nM.
Setting [10] is: compound 1 nM (as headed), R848 200 nM.
Setting [11] is: compound 3 nM (as headed), R848 200 nM.
Setting [12] is: compound 10 nM (as headed), R848 200 nM.
Setting [13] is: compound 30 nM (as headed), R848 200 nM.
[14] abbreviates: compound 100 nM (as headed), R848 200 nM.

Regarding `CCOc1nc(N)c2nc(-c3cncc(F)c3)n(Cc3ccc(CN4C[C@@H]5C[C@H]4CN5C)cc3)c2n1` [Cpd-6], in assay [1], the “TLR2-dependent TNF-α production” value is listed as “neither Cpd-6 nor Cpd-7 blocked”; the “Mean TNF-α” value is 2207.35 pg/mL; the TNF-α was 2553.64 pg/mL and 2237.72 pg/mL and 1830.68 pg/mL.
Consider `CCOc1nc(C)c2nc(-c3cncc(F)c3)n(Cc3ccc(CN4C[C@@H]5C[C@H]4CN5C)cc3)c2n1` [Cpd-7], for which the “TLR2-dependent TNF-α production” value in assay [1] is reported as “neither Cpd-6 nor Cpd-7 blocked”. Further, the “Mean TNF-α” value in assay [1] came to 2407.5 pg/mL. Also, the TNF-α in assay [1] is 2596.39 pg/mL and 2051.11 pg/mL and 2574.99 pg/mL. The “selectivity mouse TLR7 vs TLR9” value in assay [2] is recorded as “TLR7-selective”. The IC50 in assay [2] (R848 200 nM) worked out at 192 nM. The “mouse TLR7 activity, reporter signal” value in assay [2] (setting [3]) is listed as 7166; in assay [2] (setting [4]), 5248; in assay [2] (setting [5]), 4474; in assay [2] (setting [6]), 4918; in assay [2] (setting [7]), 5112; in assay [2] (setting [8]), 4262. The “mouse TLR7 activity, reporter signal” value in assay [2] (setting [9]) was 2860; in assay [2] (setting [10]), 1240; in assay [2] (setting [11]) it was 1308; in assay [2] (setting [12]), 550; in assay [2] (setting [13]) it was 0; in assay [2] (setting [14]), 0.
As to `CCN(CCO)CCCC(C)Nc1ccnc2cc(Cl)ccc12` (centres unmarked) [HCQ, hydroxychloroquine, reference compound], the “mouse TLR7 activity, reporter signal” value amounted to 7166 in assay [2] (setting [3]); 7642 in assay [2] (setting [4]); 8310 in assay [2] (setting [5]); 7288 in assay [2] (setting [6]); 6268 in assay [2] (setting [7]); 6670 in assay [2] (setting [8]). Also, the “mouse TLR7 activity, reporter signal” value in assay [2] (setting [9]) was determined as 9264; in assay [2] (setting [10]), 7190; in assay [2] (setting [11]), 9456; in assay [2] (setting [12]), 3934; in assay [2] (setting [13]) it was 558; in assay [2] (setting [14]) it was 1958.

The values are drawn from PMC7562955 (Nature Communications, 2020).
